{"source": "patent US4680285A", "about": "“Treatment of malignant tumors with 2-(β-D-ribofuranosylthiazole-4-carboxamide related compounds” (priority 1985, dated 1987)", "key": {"L-1210 lymphoid leukemia": {"test_system": "L-1210 lymphoid leukemia", "experiment": "L-1210 lymphoid leukemia in vivo screen, median survival (Example 5)", "parameters": "species or system CD2 F1 male mice", "settings": "for Percent Treated Animals/Control Animals: >125% positive; for Treated Group Survival Time (median): control 8.5", "from_the_text": "As an indicator of reproducible activity, compound 1 of the invention was screened against L-1210 lymphoid leukemia in vivo using CD2 F1 male mice as the testing species. The parameter of efficacy chosen was based upon the median survival time of animals treated with the drug vs. appropriate control group animals. Both drug treated animals and control group animals were inoculated IP with 10^5 seed cells of L-1210 lymphoid leukemia in Ascitic fluid.\nOne day after tumor inoculation, the drug group of animals was placed on a regimen of treatment of compound 1 at the dose levels as noted below, table 1. The drug treated group of animals was inoculated once daily for five days at the doses noted by IP injection of the test compound appropriately diluted with water.\nDay six was chosen as an indication of drug toxicity. […] Death of drug treated animals after day six was, therefore, attributed to tumor deaths and not drug toxicity.\nThe median death day of the control group was day 8.5. […] A percent of drug treated animals/control animals greater than 125% is taken as positive drug activity."}, "Lewis lung carcinoma": {"test_system": "Lewis lung carcinoma", "experiment": "Lewis lung carcinoma (IV inoculated) in vivo, median survival, 60-day test (Example 10)", "parameters": "species or system B6 D2 F1 male mice", "settings": "for Treated Group Survival Time (median): assigned 60 at end of test, control 18.4; for Percent Treated Animals/Control Animals: based on assigned 60 days", "from_the_text": "For example 10, B6 D2 F1 male mice were used and challenged with Lewis lung carcinoma.\nIn Example 10, forty control animals were used and ten test animals each at dose levels indicated below in Table 6. For both the control group and the drug treated group, tumors were induced by IV injection on day zero followed by initiating of drug treatment on day one. For example 10 water was used as the drug vehicle.\nIn both the control group and the drug treated group in Example 10, the animals were inoculated on day zero with a homogenate of 10^6 seed cells of Lewis lung carcinoma. For Example 10, drug treatment was started on day one and compound 1 given once daily for nine days. Day five was utilized as the cut-off date for details attributable to toxicity of the drug. […] Efficacy of treatment was determined by comparing median survival time of drug treated animals with median survival time of the control animals and is expressed as percentage increase of treated animals/control animals (T/C) as per Example 5.\nThe test period was for sixty days and at the end of the sixty day period all animals surviving in the test groups were evaluated as either cured, no-takes, or tumor survivors as per Example 5 above.\nIn this example, the drug treated animals were injected IP with the dose level noted in table 6 below. Ten animals were treated at each dose level. No control animals survived beyond day 23 with a median death data of day 18.4. […] Because of this fact, the T/C ratio noted in table 6 below is a constant figure based on assigning survival day rate of sixty to the treated animals and a median death date of 18.4 days to the control animals."}, "[1]": {"test_system": "Lewis lung seed cells (brain tumors)", "experiment": "Intracranially inoculated Lewis lung brain tumors in vivo, survival (Example 12)", "parameters": "species or system AKD2 F1 mice", "settings": "for Treated Group Survival Time: control 9.6", "from_the_text": "(§1) For Example 12, compound 1 was given IP to a group of AKD2 F1 mice which were inflicted by intercranial inoculation with Lewis lung seed cells to establish brain tumors.\n(§2) For this test, 32 control animals were used and no control animals survived beyond day eleven with a mean death data of day 9.6 for the controls. Water was used as the drug vehicle. For both the control group and the test group, tumors were induced on day zero with initiation of drug treatment on day one where compound 1 was given once daily for nine days. Test results are expressed as T/C as per example 5."}, "[2]": {"experiment": "blood brain barrier crossing after IP injection (Example 12)", "type": "in vivo, AKD2 F1 mice", "settings": "inferred from activity on intracranial tumor after IP injection", "from_the_text": "as §1, §2"}, "[3]": {"test_system": "type 1 herpes simplex virus", "settings": "cited from earlier work"}, "[4]": {"settings": "100 mg/Kg, ten animals, sixty days"}}, "note": "“Also recorded” adds a separate entry of the source."}
{"smiles": "NC(=O)c1csc([C@@H]2O[C@H](CO)[C@@H](O)[C@H]2O)n1", "note": "[Compound 1, 2-β-D-Ribofuranosylthiazole-4-Carboxamide]", "values": [{"measurement": "Percent Treated Animals/Control Animals", "setting": "L-1210 lymphoid leukemia; 12.5 mg/Kg IP once daily x5", "value": 111, "unit": "%"}, {"measurement": "Treated Group Survival Time (median)", "setting": "L-1210 lymphoid leukemia; 12.5 mg/Kg IP once daily x5", "value": 9.5, "unit": "days"}, {"measurement": "Percent Treated Animals/Control Animals", "setting": "L-1210 lymphoid leukemia; 25 mg/Kg IP once daily x5", "value": 120, "unit": "%"}, {"measurement": "Treated Group Survival Time (median)", "setting": "L-1210 lymphoid leukemia; 25 mg/Kg IP once daily x5", "value": 10.2, "unit": "days"}, {"measurement": "Percent Treated Animals/Control Animals", "setting": "L-1210 lymphoid leukemia; 50 mg/Kg IP once daily x5", "value": 129, "unit": "%"}, {"measurement": "Treated Group Survival Time (median)", "setting": "L-1210 lymphoid leukemia; 50 mg/Kg IP once daily x5", "value": 11.0, "unit": "days"}, {"measurement": "Percent Treated Animals/Control Animals", "setting": "L-1210 lymphoid leukemia; 100 mg/Kg IP once daily x5", "value": 149, "unit": "%"}, {"measurement": "Treated Group Survival Time (median)", "setting": "L-1210 lymphoid leukemia; 100 mg/Kg IP once daily x5", "value": 12.7, "unit": "days"}, {"measurement": "Percent Treated Animals/Control Animals", "setting": "L-1210 lymphoid leukemia; 200 mg/Kg IP once daily x5", "value": 168, "unit": "%"}, {"measurement": "Treated Group Survival Time (median)", "setting": "L-1210 lymphoid leukemia; 200 mg/Kg IP once daily x5", "value": 14.3, "unit": "days"}, {"measurement": "survival through day six (drug toxicity)", "setting": "L-1210 lymphoid leukemia; 12.5-200 mg/Kg IP once daily x5", "value": "all drug treated animals survived through day six"}, {"measurement": "activity in multiple dose assay", "setting": "L-1210 lymphoid leukemia; T/C >125% taken as positive", "value": "positive activity"}, {"measurement": "median death day vs control", "setting": "L-1210 lymphoid leukemia; all levels of drug tested", "value": "longer at all levels of drug tested"}, {"measurement": "median death day vs control", "setting": "L-1210 lymphoid leukemia; greater than 50 mg/Kg", "value": "significantly longer"}, {"measurement": "animals surviving the sixty day test period", "setting": "Lewis lung carcinoma; 25 mg/Kg", "value": "all test animals survived"}, {"measurement": "Treated Group Survival Time (median)", "setting": "Lewis lung carcinoma; 25 mg/Kg IP once daily x9", "value": 60, "unit": "days"}, {"measurement": "Percent Treated Animals/Control Animals", "setting": "Lewis lung carcinoma; 25 mg/Kg IP once daily x9", "value": 326, "unit": "%"}, {"measurement": "Treated Group Survival Time (median)", "setting": "Lewis lung carcinoma; 50 mg/Kg IP once daily x9", "value": 60, "unit": "days"}, {"measurement": "Percent Treated Animals/Control Animals", "setting": "Lewis lung carcinoma; 50 mg/Kg IP once daily x9", "value": 326, "unit": "%"}, {"measurement": "day of the one death", "setting": "Lewis lung carcinoma; 50 mg/Kg, ten animals", "value": 47, "unit": "days"}, {"measurement": "animals judged as cured", "setting": "Lewis lung carcinoma; 50 mg/Kg, ten animals, sixty days", "value": "nine cures"}, {"measurement": "Treated Group Survival Time (median)", "setting": "Lewis lung carcinoma; 100 mg/Kg IP once daily x9", "value": 60, "unit": "days"}, {"measurement": "Percent Treated Animals/Control Animals", "setting": "Lewis lung carcinoma; 100 mg/Kg IP once daily x9", "value": 326, "unit": "%"}, {"measurement": "day of the one death", "setting": "Lewis lung carcinoma; 100 mg/Kg, ten animals", "value": 46, "unit": "days"}, {"measurement": "animals judged as cured", "setting": "Lewis lung carcinoma; [4]", "value": "eight cures"}, {"measurement": "tumor survivors", "setting": "Lewis lung carcinoma; [4]", "value": "one tumor survivor"}, {"measurement": "animals surviving the sixty day test period", "setting": "Lewis lung carcinoma; 200 mg/Kg", "value": "all test animals survived"}, {"measurement": "Treated Group Survival Time (median)", "setting": "Lewis lung carcinoma; 200 mg/Kg IP once daily x9", "value": 60, "unit": "days"}, {"measurement": "Percent Treated Animals/Control Animals", "setting": "Lewis lung carcinoma; 200 mg/Kg IP once daily x9", "value": 326, "unit": "%"}, {"measurement": "animals judged as cured", "setting": "Lewis lung carcinoma; 200 mg/Kg, ten animals, sixty days", "value": "all ten"}, {"measurement": "animals surviving the sixty day test period", "setting": "Lewis lung carcinoma; 400 mg/Kg", "value": "all test animals survived"}, {"measurement": "Treated Group Survival Time (median)", "setting": "Lewis lung carcinoma; 400 mg/Kg IP once daily x9", "value": 60, "unit": "days"}, {"measurement": "Percent Treated Animals/Control Animals", "setting": "Lewis lung carcinoma; 400 mg/Kg IP once daily x9", "value": 326, "unit": "%"}, {"measurement": "animals judged as cured", "setting": "Lewis lung carcinoma; 400 mg/Kg, ten animals, sixty days", "value": "all ten"}, {"measurement": "mortality attributable to drug toxicity", "setting": "Lewis lung carcinoma; 25-400 mg/Kg, day five cut-off", "value": "no mortality attributable to drug toxicity"}, {"measurement": "activity against Lewis lung carcinoma", "setting": "Lewis lung carcinoma; Example 10", "value": "effective antitumor agent; also recorded: active antitumor agent; also recorded: outstanding activity"}, {"measurement": "median survival time vs control", "setting": "Lewis lung carcinoma; Example 10", "value": "dramatically extended"}, {"measurement": "DN 2 criteria of the National Cancer Institute", "setting": "Lewis lung carcinoma; Lewis lung carcinoma", "value": "successfully passed"}, {"measurement": "cures at cessation of the test period", "setting": "Lewis lung carcinoma; all but one dose level", "value": "at least 80%"}, {"measurement": "cures at cessation of the test period", "setting": "Lewis lung carcinoma; at two dose levels (200 and 400 mg/Kg)", "value": 100, "unit": "%"}, {"measurement": "Percent Treated Animals/Control Animals", "setting": "[1]; 25.0 mg/Kg IP once daily x9", "value": 172, "unit": "%"}, {"measurement": "Treated Group Survival Time", "setting": "[1]; 25.0 mg/Kg IP once daily x9", "value": 16.6, "unit": "days"}, {"measurement": "Percent Treated Animals/Control Animals", "setting": "[1]; 37.5 mg/Kg IP once daily x9", "value": 166, "unit": "%"}, {"measurement": "Treated Group Survival Time", "setting": "[1]; 37.5 mg/Kg IP once daily x9", "value": 16.0, "unit": "days"}, {"measurement": "Percent Treated Animals/Control Animals", "setting": "[1]; 75 mg/Kg IP once daily x9", "value": 185, "unit": "%"}, {"measurement": "Treated Group Survival Time", "setting": "[1]; 75 mg/Kg IP once daily x9", "value": 19.0, "unit": "days"}, {"measurement": "Percent Treated Animals/Control Animals", "setting": "[1]; 150 mg/Kg IP once daily x9", "value": 197, "unit": "%"}, {"measurement": "Treated Group Survival Time", "setting": "[1]; 150 mg/Kg IP once daily x9", "value": 20.5, "unit": "days"}, {"measurement": "Percent Treated Animals/Control Animals", "setting": "[1]; 300 mg/Kg IP once daily x9", "value": 213, "unit": "%"}, {"measurement": "Treated Group Survival Time", "setting": "[1]; 300 mg/Kg IP once daily x9", "value": 20.5, "unit": "days"}, {"measurement": "Percent Treated Animals/Control Animals", "setting": "[1]; 600 mg/Kg IP once daily x9", "value": 211, "unit": "%"}, {"measurement": "Treated Group Survival Time", "setting": "[1]; 600 mg/Kg IP once daily x9", "value": 20.3, "unit": "days"}, {"measurement": "Percent Treated Animals/Control Animals", "setting": "[1]; 700 mg/Kg IP once daily x9", "value": 211, "unit": "%"}, {"measurement": "Treated Group Survival Time", "setting": "[1]; 700 mg/Kg IP once daily x9", "value": 20.3, "unit": "days"}, {"measurement": "Percent Treated Animals/Control Animals", "setting": "[1]; 800 mg/Kg IP once daily x9", "value": 221, "unit": "%"}, {"measurement": "Treated Group Survival Time", "setting": "[1]; 800 mg/Kg IP once daily x9", "value": 21.3, "unit": "days"}, {"measurement": "effect on brain tumors", "setting": "[1]; IP, once daily x9", "value": "reduction of the brain tumors"}, {"measurement": "crossing of the blood brain barrier", "setting": "[2]", "value": "successful crossing of the blood brain barrier; also recorded: successfully crosses the blood brain barrier"}, {"measurement": "in vitro antiviral activity", "setting": "[3]", "value": "only moderate"}]}
